Experimental findings from US20150152035A1, “COSMETIC USE OF SALICYLIC ACID DERIVATIVES” (Avon Products, Inc,, priority 2013, published 2015) are described below.

The target of series [1] is T1, recombinant human (rh) KLK5 protease (Homo sapiens, UniProt Q9Y337).
T1 construct: purchased R&D Systems 1108-SE
T1 sequence (Q9Y337 23-293): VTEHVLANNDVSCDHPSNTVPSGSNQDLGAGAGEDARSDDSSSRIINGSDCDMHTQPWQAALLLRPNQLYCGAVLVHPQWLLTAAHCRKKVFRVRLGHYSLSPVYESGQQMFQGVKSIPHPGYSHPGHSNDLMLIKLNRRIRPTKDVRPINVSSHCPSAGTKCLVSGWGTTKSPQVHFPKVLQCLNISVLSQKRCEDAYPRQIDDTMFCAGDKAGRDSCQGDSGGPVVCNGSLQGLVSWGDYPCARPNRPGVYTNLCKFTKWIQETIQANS
As to the kind of experiment: Enzymatic activity of Kallikrein 5 (KLK5), fluorogenic peptide substrate Boc-V-P-R-AMC. It counts as biochemical. As to conditions: for KLK5 activity compared to that of salicylic acid: relative to salicylic acid; for stimulation of KLK5 enzymatic activity: rhKLK5 pre-incubated with test compound 60 seconds, rate of substrate cleavage. An excerpt: In the stratum corneum, skin's outermost layer, cell-to-cell cohesion depends primarily on proteins known as the corneodesmosomes. During skin remodeling and renewal dead cells are shed from the skin surface by the action of native proteases that break down the corneodesmosomes. […] Hypothetically, up-regulation of the activities of these proteases using different active candidates could be utilized to increase the rate of shedding of dead skin, thus providing a natural means for skin exfoliation. To this end, the enzymatic activity of a member of the KLK family, recombinant human (rh) KLK5, was monitored following pre-incubation with actives and measuring the rate of peptide bond cleavage of a synthetic substrate.
Enzymatic activity of KLK5 was measured by incubating recombinant human (rh) KLK5 protease (R&D Systems, Cat No. 1108-SE) with a specific fluorogenic peptide substrate Boc-V-P-R-AMC (R& D Systems, Cat No. ES011). The substrate is conjugated to a quenched fluorescent group. Upon cleavage of the adjacent peptide bond, the fluorescent signal is released, resulting in a measurable emission at 535 nm when excited at 340 nm wavelength. Increase in fluorescence reading indicates an increase in rhKLK5 activity. The test compounds were reacted with recombinant rhKLK5 protease for 60 seconds followed by addition of Boc-V-P-R-AMC Fluorogenic Peptide Substrate. After 60 seconds of incubation, fluorescence was measured at 340 nm (Excitation wavelength) and […] (Emission wavelength) every 1 minute for 7 minutes. Rate (kinetics) of enzyme activity was calculated as follows: Rate of enzyme activity=Change of fluorescent reading (after background correction)/Change of reaction time (min). Percent change of activity due to a test compound was calculated by comparing rate of enzyme activity in the presence of the test compound to that of a control without the test compound and statistical significance was calculated using a t-test. Additionally, the rate of activity of the compounds was compared to that of salicylic acid.

The nature of series [2]: Skin PAMPA parallel artificial membrane penetration assay. It counts as in vitro ADME. As to conditions: donor pH 4.25, acceptor pH 7.4, 50 nM, two hours incubation; relative to salicylic acid. The protocol: Several salicylic acid derivatives were assessed for their ability to penetrate skin. Each of the compounds was formulated in an aqueous buffer, with a final pH of 4.25 at a concentration of 50 nM. The skin permeability of the compounds was measured using a high throughput transdermal permeability model, the parallel artificial membrane penetration assay (Skin PAMPA™), which uses a skin mimetic artificial membrane that simulates the barrier properties of the strateum corneum.
Briefly, the Skin PAMPA™ assay is a sandwich assay that utilizes two 96-well plate assemblies, one of which acts as the acceptor chambers (comprising a buffer), and one of which acts as the donor chambers (comprising a buffer and the compound to be tested). […] After an incubation period, the donor and acceptor chambers are analyzed for the amount of compound present.
In the current experiments, the acceptor chamber included an acceptor solution made from Prisma™ HT buffer solution (Pion, Inc.) that was adjusted to a pH of 7.4±0.05 using 1.0 M NaOH, and the donor chamber included a donor solution made from Prisma™ HT buffer solution (Pion, Inc.) that was adjusted to a pH of 4.25±0.05 using 1.0 M NaOH. […] Effective permeability was then calculated by the same method as Sinko et al., Eur. J. Pharm. […]

Take `CC(C)(C)c1cc(O)c(C(=O)O)c(C(C)(C)C)c1` [Compound B, 4,6-di-tert-butyl salicylic acid]: in series [1], the “KLK5 activity compared to that of salicylic acid” value is “superior KLK5 activity as compared to salicylic acid” and the “stimulation of KLK5 enzymatic activity” value is on record as “potent stimulators of KLK5”. Also, in series [2], the “skin permeability (effective permeability)” value was “highest permeability”.
For `CC(C)c1cc(O)c(C(=O)O)c(C(C)C)c1` [Compound A, 4,6-diisopropyl salicylic acid] the same measures were “superior KLK5 activity as compared to salicylic acid”, “potent stimulators of KLK5” and “highest permeability”.
